Assay [1] has as its system total tau levels in HeLa-V5-tau cells. The assay is described as follows: Total tau by western blotting in HeLa-V5-tau cells treated with compounds. The format is cell-based. To be noted: 10 μM, 6 hours. How it is done: (§1) Brain homogenates and cultured cells were lysed with RIPA buffer (50 mM Tris pH 7.4, 150 mM NaCl, 2 mM ethlenediaminetetraacetic acid, 1% NP-40, 0.1% sodium dodecyl sulfate) plus protease and phosphatase inhibitors. Proteins were extracted and centrifuged at 15000 rpm for 15 min at 4° C., and RIPA insoluble fractions were lysed with 5% SDS with 1% β-mercaptoethanol, 50 mM Tris-HCl pH 6.8, 12.5 mM EDTA, 10% glycerol, and 0.02% bromophenol blue. Supernatants were used for western blot analysis. […]. co-IP experiments were carried out from NP40 lysates or indicated buffers with preclearing with IgG beads followed by IP with IgG beads alone or IgG beads+indicated antibodies, extensive washing (5×) with the original buffer, and Western blotting on SDS-PAGE. Sarkosyl extraction was performed as previously described (Hasegawa M, et al. (2007) Brain 130(Pt 5):1386-1394). Briefly, brain homogenates were lysed with A68 buffer containing 10 mM Tris-HCl, pH 7.4, 0.8M NaCl, 10% Sucrose, 1 mM EGTA). Samples were centrifuged at 400 g for 20 min at 4° C., and 1% sarkosyl was added to the collected supernatants. The samples were incubated for 1.5 h and centrifuged at 80,000 g for 30 min at room temperature. The pellets were resuspended in 100 ul of 50 mM Tris-HCl, pH 7.4.
(n=4, one-way ANOVA, post hoc Dunnett's, **P<0.005, ***P<0.0005).
(In general: A western blot detects proteins with antibodies after separation by electrophoresis.)

The target of assay [2] is T1, GFP-βarrestin2/Flag-βarrestin2 complexes (β-arrestin2 oligomerization) (Rattus norvegicus, UniProt P29067).
T1 construct: expressed in transfected cells; host or cells: Hela-V5-tau cells
T1 sequence (P29067 whole entry, one chain of several): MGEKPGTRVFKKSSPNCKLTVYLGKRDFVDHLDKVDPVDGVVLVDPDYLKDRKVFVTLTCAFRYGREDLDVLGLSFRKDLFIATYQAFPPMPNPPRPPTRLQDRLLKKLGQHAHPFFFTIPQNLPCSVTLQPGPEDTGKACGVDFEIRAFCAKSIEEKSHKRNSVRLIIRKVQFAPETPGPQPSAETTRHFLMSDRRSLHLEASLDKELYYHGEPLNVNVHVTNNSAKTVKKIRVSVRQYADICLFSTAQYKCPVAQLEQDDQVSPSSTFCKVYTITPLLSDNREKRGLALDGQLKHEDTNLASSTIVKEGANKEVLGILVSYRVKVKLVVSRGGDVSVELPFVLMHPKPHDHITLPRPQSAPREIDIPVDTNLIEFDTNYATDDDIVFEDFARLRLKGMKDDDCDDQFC
The assay is described as follows: Proximity ligation assay (PLA) for GFP-βarrestin2/Flag-βarrestin2 complexes. It counts as cell-based. Conditions: 20 μM, 6 hours, Hela-V5-tau cells. As to the method: The assay was performed using commercially available reagents (Duolink, Sigma-Aldrich, St Louis, MO), with transfection of Hela V5-tau cells with WT β-arrestin2-flag and β-arrestin2-myc, without and with the mutant β-arrestin2 ΔIP6C or β-arrestin2 ΔIP6N constructs. Cells were fixed with 4% paraformaldehyde for 15 min at room temperature and washed with 0.2% triton in TBS. After washing, cells were blocked with 0.2% Triton in 3% Normal goat serum for 1 hour at room temperature. After applying primary antibodies overnight at 4° C., cells were washed and incubated with the PLA probes at 37° C. (1 h), washed with buffer A, incubated with ligation solution at 37° C. (30 min), washed with washing buffer A, incubated with amplification solution at 37° C. (100 min), and washed with washing buffer B before mounting.
FIGS. 28A and 28B show compounds C2 and C2 inhibit β-arrestin2 oligomerization. Hela-V5-tau cells were transfected with GFP-βarrestin2 and Flag-βarrestin2 and treated with 20 μM of 01, C1, or C2 for 6 hours.

Assay [3] relates to HT7 (total human tau) in Tau-P301S hippocampal primary neurons. The assay is described as follows: HT7 staining of DIV21 hippocampal primary neurons from Tau-P301S mice treated with compounds. It counts as cell-based. Conditions: 20 μM, 6 hours. How it is done: Primary mouse hippocampal and cortical neuronal cultures were previously described (Woo J A, et al. (2019) Commun Biol 2:112; Woo J A, et al. (2017) Hum Mol Genet 26(20):3973-3988; Woo J A, et al. (2015) Cell Death Differ 22(6):1069-1070). Briefly, primary neurons were prepared from P0 mice. Both hippocampus and cortex were dissected separately in HBSS and digested with trypsin. Neurons were plated on glass coverslips coated with poly-D-lysine (Sigma-Aldrich, St Louis, MO, USA) and maintained in neurobasal medium with glutamax (Invitrogen, Carlsbad, CA, USA) and B27 supplement (Invitrogen, Carlsbad, CA, USA).
Cells were fixed with 4% paraformaldehyde for 15 min at room temperature and washed with 0.2% triton in TBS and blocked using 3% BSA with 0.1% triton x-100 for 1 hr, incubated with primary antibodies for overnight at 4° C. and fluorescently labeled secondary antibodies for 45 min at room temperature. […] Images were captured with the Olympus FV10i confocal microscope (Tokyo, Japan), and the immunoreactivities were quantified using the Image J software (National Institutes of Health, Bethesda, MD). Immunoreactivities were quantitated from every 12th serial section through an entire hippocampus. […] Regions of interest were chosen randomly, and investigators were blinded to experimental conditions during image acquisition and quantification. […]

The test system of assay [4] is sarkosyl-insoluble tau in HeLa-V5-tau cells. The assay is described as follows: Sarkosyl soluble and insoluble fractionation of compound-treated HeLa-V5-tau cells. It counts as cell-based. To be noted: 20 μM, 6 hours. As to the method:
as §1
FIGS. 27A and 27B show C1 and C2 compounds reduce pathogenic tau. […]

Assay [5] concerns the target T2, GFP-βarrestin2/Flag-βarrestin2 complexes (βarrestin2 self-interaction) (Rattus norvegicus, UniProt P29067).
T2 construct: expressed in transfected cells; host or cells: Hela-V5-tau cells
The assay is described as follows: Co-immunoprecipitation (co-IP) for GFP-βarrestin2/Flag-βarrestin2 complexes. The format is cell-based. Conditions: 20 μM, 6 hours, Hela-V5-tau cells. As to the method: as §1
FIGS. 28A and 28B show compounds C2 and C2 inhibit β-arrestin2 oligomerization. […]

Assay [6] deals with T3, β-arrestin2 oligomerization (Rattus norvegicus, UniProt P29067).
T3 construct: expressed in transfected cells; host or cells: Hela-V5-tau cells
T3 sequence (P29067 whole entry): as the sequence (P29067 whole entry, one chain of several) above
The assay is described as follows: FRET assay CFP-βarrestin2/YFP-βarrestin2 in Hela-V5-tau cells. It counts as cell-based. Conditions: 20 μM, 30 min.

The subject of assay [7] is tau phosphorylation. To be noted: cited from earlier work.
The subject of assay [8] is phospho-tau. The assay is described as follows: Phospho-tau in tauP301S cortical primary neurons treated with GPCR agonists. The format is cell-based, mice. Conditions: 10 μM. The source says:
FIGS. 20A to 20E show β-arrestin is required mGluR2 and β2AR mediated tau accumulation and phosphorylation. […] Representative blots are shown. […] Unpaired t-test. All data are presented as mean±SEM. […] Representative blots are shown. […] Unpaired t-test. All data are presented as mean±SEM. […] Representative blots are shown.
Based on these prior observations, the goal was to confirm these findings in tauP301S transgenic primary neurons and Hela cells stably expressing tau (V5-tagged 4R0N tau, Hela-V5-tau cells).

Assay [9] deals with phospho-tau. The assay is described as follows: Phospho-tau immunoblot in Hela-V5-tau cells transfected with siRNA and treated with GPCR agonists. It counts as cell-based. To be noted: for tau phosphorylation: 10 μM, control siRNA or β-arrestin2 siRNA experiment (FIGS. 13E,13F); for phospho-tau response in β-arrestin1 siRNA transfected cells: β-arrestin1 knockdown; for tau phosphorylation, control siRNA transfected cells: β-arrestin1 siRNA experiments (FIGS. 13A-13D). How it is done: FIGS. 13A to 13F show β-arrestin1 is required for mGluR2 and β2AR mediated increase in pathogenic tau. […] After transfection, cells were treated with either vehicle or 10 μM isoproterenol (Iso), lysed and immunoblotted for indicated proteins. Representative blots are shown. […] 1-way ANOVA with Dunnett's test. […] Representative blots are shown. […] 1-way ANOVA with Dunnett's test. […] 1-way ANOVA with Dunnett's test.
At present, it is not clear how different GPCRs, such as β2AR and mGluR2, and their agonists alter tau phosphorylation. One commonality of downstream signaling between these GPCRs is β-arrestin1 and β-arrestin2, which were initially identified and characterized based on its function to internalize and desensitize GPCRs, including β2AR (Lohse, M. J. et al. J Biol Chem (1992) 267:8558-8564) and mGluR2 (lacovelli, L. et al. Mol Pharmacol (2009) 75:991-1003). To test whether β-arrestin1 and/or β-arrestin2 is required for β2AR-mediated regulation of tau, Hela-V5-tau cells were transfected with control siRNA or β-arrestin1 siRNA and treated either vehicle or 10 μM Iso. […] Next, assessed was whether β-arrestin1 is required for mGluR2-mediated tau phosphorylation. […] Next, Hela-V5-tau cells were transfected with control siRNA or β-arrestin2 siRNA and treated vehicle, 10 μM Iso or LY-379,268.

The subject of assay [10] is tau phosphorylation. To be noted: cited from earlier work. The source holds these as a separate data set.

SMILES strings stand for the structures.

T2 sequence (P29067 whole entry, one chain of several): as above

In the case of `O=C(CNC(=O)c1ccc2c(c1)CCC2)NCc1cn2ccccc2n1` [C1, 2-[(2,3-dihydro-1H-inden-5-yl)formamido]-N-({imidazo[1,2-a]pyridin-2-yl}methyl)acetamide], the total tau levels result in assay [1] is listed as “significantly decreased”. For the same molecule, the “βarrestin2 oligomerization by PLA” value in assay [2] is on record as “significant reduction”. For the same molecule, in assay [3], the “HT7 immunoreactivity (total human tau)” value is recorded as “significantly decreased”. Besides, in assay [4], the sarkosyl-insoluble tau levels entry is “significantly decreased”. The “βarrestin2 self-interaction by co-IP” value in assay [5] was “reduce βarrestin2 self-interaction to background levels”.
Take `Cc1ccc(NCCNC(=O)c2cc(-c3ccccc3)no2)nn1` [C2, N-{2-[(6-methylpyridazin-3-yl)amino]ethyl}-3-phenyl-1,2-oxazole-5-carboxamide]: the total tau levels result in assay [1] is listed as “significantly decreased”. For the same molecule, in [2], the “βarrestin2 oligomerization by PLA” value is “significant reduction”. Further, the “HT7 immunoreactivity (total human tau)” value in [3] was “significantly decreased”. Also, in assay [4], the sarkosyl-insoluble tau levels entry is recorded as “significantly decreased”. Besides, in [6], the “CFP to YFP FRET signal” value is “reduces CFP to YFP FRET signal”. Further, the “βarrestin2 self-interaction by co-IP” value in [5] is “reduce βarrestin2 self-interaction to background levels”.
`CC(C)NCC(O)c1ccc(O)c(O)c1` (stereo not drawn) [Isoproterenol]: the “tau phosphorylation in rats” value in the assay on tau phosphorylation [7] is given as “markedly increases tau phosphorylation”. Moreover, the phospho-tau result with phospho-tau [8] is on record as “significantly increased”. For the same molecule, in the assay with phospho-tau [9], the tau phosphorylation result is given as “increased”; the “phospho-tau response in β-arrestin1 siRNA transfected cells” value is “failed to respond”; the “tau phosphorylation, control siRNA transfected cells” value is on record as “increased”.
For `N[C@@]1(C(=O)O)CO[C@H]2[C@H](C(=O)O)[C@H]21` [LY-379,268], the phospho-tau result in the assay with phospho-tau [8] was “increased”. In the assay on tau phosphorylation [10], the “tau phosphorylation via ERK activation” value is “increase tau phosphorylation”. In addition, in the assay with phospho-tau [9], the tau phosphorylation entry is reported as “increased”; the “phospho-tau response in β-arrestin1 siRNA transfected cells” value is “failure to respond”; the “tau phosphorylation, control siRNA transfected cells” value is reported as “increased”.

(Values after US11896644B2, “Inhibition of beta-arrestin oligomerization in tauopathy” (UNIVERSITY OF SOUTH FLORIDA, priority 2020, dated 2024).)
